Data on 16 compounds can be found in patent US10000488B2, “Heterocyclic compound” (TAKEDA PHARMACEUTICAL COMPANY LIMITED, priority 2014, dated 2018).

Each structure is given as a SMILES string.

Assay [1] deals with T1, RORγt (Homo sapiens, UniProt P51449).
T1 sequence (P51449 1-497 isoform P51449-2): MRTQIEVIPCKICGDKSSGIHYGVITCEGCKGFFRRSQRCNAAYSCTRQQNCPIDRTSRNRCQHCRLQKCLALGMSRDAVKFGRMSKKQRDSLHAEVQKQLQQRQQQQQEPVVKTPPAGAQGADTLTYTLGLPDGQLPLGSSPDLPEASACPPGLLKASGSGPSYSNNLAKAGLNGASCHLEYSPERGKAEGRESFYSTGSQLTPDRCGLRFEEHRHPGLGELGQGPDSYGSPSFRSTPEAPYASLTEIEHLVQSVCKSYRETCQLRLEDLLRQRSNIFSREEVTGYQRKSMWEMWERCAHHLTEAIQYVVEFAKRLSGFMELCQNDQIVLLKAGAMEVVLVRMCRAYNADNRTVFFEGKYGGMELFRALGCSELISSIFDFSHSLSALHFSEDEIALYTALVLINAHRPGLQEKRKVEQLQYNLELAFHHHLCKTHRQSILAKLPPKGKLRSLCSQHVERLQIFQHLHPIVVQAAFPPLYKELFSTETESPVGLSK
The experiment in a line: RORγt binding test using fluorescent-labeled synthetic ligand (TR-FRET). The following applies: test compound 1 μM; read-out: binding inhibitory rate (%) of fluorescent-labeled synthetic ligand to RORγt at test compound 1 μM. The gist of the method:
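Compound displacement of a fluorescent-labeled synthetic ligand from His-tagged RORγt was read by TR-FRET with a terbium anti-His antibody. Buffer was 20 mM Tris-HCl pH 7.5, 100 mM NaCl, 1 mM DTT and 0.1% BSA, with stocks of 240 nM protein, 12 μM ligand and 8 nM antibody (pre-mix, not final). Incubations were 20 min plus 20 min at room temperature, with excitation at 320 nm, emission at 520 nm and a 100 μs delay.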

In assay [2] the target is T1, RORγt. Briefly: Jurkat reporter test (human IL-17 ROR response element luciferase reporter, RORγt vector). Type of assay: cell-based. The following applies: test compound 3 μM; Jurkat cells; read-out: luminescence level inhibitory rate (%) at test compound 3 μM. The method, boiled down: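 Jurkat cells were electroporated (1350 V, 10 ms, 3 pulses) with the reporter constructs and plated in RPMI with 10% lipid-reduced FCS, 10 mM HEPES pH 7.5 and 5 μM lovastatin. After overnight culture with compound, luciferase activity was measured by luminescence following a 10 min room-temperature incubation with Bright-Glo.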
For orientation: A reporter such as luciferase makes a cellular process visible.

Assay [3] concerns the target T1, RORγt. Briefly: Cofactor recruitment test (Alpha Screen, biotinylated SRC-1 peptide). It counts as biochemical. The following applies: read-out: signal value inhibitory rate (%) at test compound 1 μM. On the procedure: Cofactor Recruitment Test
Cofactor recruitment test was performed by Alpha Screen (Histidine Detection Kit, PerkinElmer) method. First, a test compound was diluted with an assay buffer (50 mM Tris-HCl (pH 7.5), 50 mM KCl, 1 mM DTT, 0.1% BSA) and added to a 384 well plate by 5 μL. […] The mixture was stood in a dark place for 1 hr, and the signal value was measured by Envision (PerkinElmer).

With `CC(C)n1c(=O)n(CC2CC2)c(=O)c2cc(NC(=O)N3CCC[C@@H](NC(=O)c4cc(Cl)ccc4F)C3)c(F)cc21` [Example 282, (3R)-3-((5-chloro-2-fluorobenzoyl)amino)-N-(3-(cyclopropylmethyl)-7-fluoro-1-isopropyl-2,4-dioxo-1,2,3,4-tetrahydroquinazolin-6-yl)piperidine-1-carboxamide], the inhibition at 1 µM is 102% on RORγt [1] and 108% at RORγt [3]. In addition, the inhibition at 3 µM on RORγt [2] stood at 102%.
Take `Cc1ccc(F)c(C(=O)N[C@@H]2CCCN(C(=O)Nc3cc4c(=O)n(CC5CC5)c(=O)n(C(C)C)c4cc3F)C2)c1` [Example 283, (3R)-N-(3-(cyclopropylmethyl)-7-fluoro-1-isopropyl-2,4-dioxo-1,2,3,4-tetrahydroquinazolin-6-yl)-3-((2-fluoro-5-methylbenzoyl)amino)piperidine-1-carboxamide]: the inhibition at 1 µM on RORγt [1] was found to be 102%; at RORγt [3], 108%. The inhibition at 3 µM at RORγt [2] was 101%.
The corresponding values for `CC(C)n1c(=O)n(CC2CC2)c(=O)c2cc(NC(=O)N3CCC[C@@H](NC(=O)c4ccc(C#N)cc4)C3)c(F)cc21` [Example 284, (3R)-3-((4-cyanobenzoyl)amino)-N-(3-(cyclopropylmethyl)-7-fluoro-1-isopropyl-2,4-dioxo-1,2,3,4-tetrahydroquinazolin-6-yl)piperidine-1-carboxamide] are 102%, 112% and 102%.
The like results for `CC(C)n1c(=O)n(CC2CC2)c(=O)c2cc(NC(=O)N3CCC[C@@H](NC(=O)c4cc(F)ccc4F)C3)c(F)cc21` [Example 287, (3R)-N-(3-(cyclopropylmethyl)-7-fluoro-1-isopropyl-2,4-dioxo-1,2,3,4-tetrahydroquinazolin-6-yl)-3-((2,5-difluorobenzoyl)amino)piperidine-1-carboxamide] were, in that order, 102%, 111% and 100%.
The corresponding values for `COc1ccc(C(=O)N[C@@H]2CCCN(C(=O)Nc3cc4c(=O)n(CC5CC5)c(=O)n(C(C)C)c4cc3F)C2)c(F)c1` [Example 291, (3R)-N-(3-(cyclopropylmethyl)-7-fluoro-1-isopropyl-2,4-dioxo-1,2,3,4-tetrahydroquinazolin-6-yl)-3-((2-fluoro-4-methoxybenzoyl)amino)piperidine-1-carboxamide] are 102%, 107% and 101%.
With `CC(C)n1c(=O)n(CC2CC2)c(=O)c2cc(NC(=O)N3CCC[C@@H](NC(=O)c4ccc(C#N)s4)C3)c(F)cc21` [Example 292, (3R)-3-(((5-cyano-2-thienyl)carbonyl)amino)-N-(3-(cyclopropylmethyl)-7-fluoro-1-isopropyl-2,4-dioxo-1,2,3,4-tetrahydroquinazolin-6-yl)piperidine-1-carboxamide], the inhibition at 1 µM on RORγt [1] was 102%; on RORγt [3] it was 112%. In addition, the inhibition at 3 µM at RORγt [2] worked out at 101%.
The corresponding values for `Cc1nc2cc(C(=O)N[C@@H]3CCCN(C(=O)Nc4cc5c(=O)n(CC6CC6)c(=O)n(C(C)C)c5cc4F)C3)ccc2o1` [Example 296, N-((3R)-1-((3-(cyclopropylmethyl)-7-fluoro-1-isopropyl-2,4-dioxo-1,2,3,4-tetrahydroquinazolin-6-yl)carbamoyl)piperidin-3-yl)-2-methyl-1,3-benzoxazole-5-carboxamide] are 102%, 108% and 102%.
The corresponding values for `COc1ccc2c(c1)C(=O)N([C@@H]1CCCN(C(=O)Nc3cc4c(=O)n(CC5CC5)c(=O)n(C(C)C)c4cc3F)C1)C2` [Example 303, (3R)—N-(3-(cyclopropylmethyl)-7-fluoro-1-isopropyl-2,4-dioxo-1,2,3,4-tetrahydroquinazolin-6-yl)-3-(6-methoxy-1-oxo-1,3-dihydro-2H-isoindol-2-yl)piperidine-1-carboxamide] are 102%, 107% and 102%.
The like results for `CCNC(=O)OCc1ccc(C(=O)N[C@@H]2CCCN(C(=O)Nc3cc4c(=O)n(CC5CC5)c(=O)n(C(C)C)c4cc3F)C2)cc1` [Example 315, 4-(((3R)-1-((3-(cyclopropylmethyl)-7-fluoro-1-isopropyl-2,4-dioxo-1,2,3,4-tetrahydroquinazolin-6-yl)carbamoyl)piperidin-3-yl)carbamoyl)benzyl ethylcarbamate] were, in that order, 102%, 94% and 108%.
For `CC(C)n1c(=O)n(CC2CC2)c(=O)c2cc(NC(=O)N3CCC[C@@H](NC(=O)c4ccc(CNC(=O)OC(C)(C)C)cc4)C3)c(F)cc21` [Example 319, tert-Butyl (4-(((3R)-1-((3-(cyclopropylmethyl)-7-fluoro-1-isopropyl-2,4-dioxo-1,2,3,4-tetrahydroquinazolin-6-yl)carbamoyl)piperidin-3-yl)carbamoyl)benzyl)carbamate], the inhibition at 1 µM worked out at 101% on RORγt [1] and 95% on RORγt [3]. The inhibition at 3 µM at RORγt [2] stood at 103%.
The like results for `COC(=O)NCc1ccc(C(=O)N[C@@H]2CCCN(C(=O)Nc3cc4c(=O)n(CC5CC5)c(=O)n(C(C)C)c4cc3F)C2)cc1` [Example 321, methyl (4-(((3R)-1-((3-(cyclopropylmethyl)-7-fluoro-1-isopropyl-2,4-dioxo-1,2,3,4-tetrahydroquinazolin-6-yl)carbamoyl)piperidin-3-yl)carbamoyl)benzyl)carbamate] were, in that order, 101%, 105% and 101%.
The corresponding values for `CC(C)n1c(=O)n(CC2CC2)c(=O)c2cc(NC(=O)N3CCC[C@@H](N4Cc5ccc(C#N)cc5C4=O)C3)c(F)cc21` [Example 323, (3R)-3-(6-cyano-1-oxo-1,3-dihydro-2H-isoindol-2-yl)-N-(3-(cyclopropylmethyl)-7-fluoro-1-isopropyl-2,4-dioxo-1,2,3,4-tetrahydroquinazolin-6-yl)piperidine-1-carboxamide] are 102%, 108% and 103%.
The corresponding values for `CC(C)n1c(=O)n(CC2CC2)c(=O)c2cc(NC(=O)N3CCC[C@@H](n4cnc5cc(C#N)ccc5c4=O)C3)c(F)cc21` [Example 324, (3R)-3-(7-cyano-4-oxoquinazoline-3(4H)-yl)-N-(3-(cyclopropylmethyl)-7-fluoro-1-isopropyl-2,4-dioxo-1,2,3,4-tetrahydroquinazolin-6-yl)piperidine-1-carboxamide] are 102%, 106% and 103%.
With `CC(C)n1c(=O)n(CC2CC2(F)F)c(=O)c2cc(NC(=O)N3CCO[C@@H](C(=O)Nc4ccc(C#N)c(Cl)c4)C3)c(F)cc21` (stereo partly drawn) [Example 331, (2R)—N^2-(3-chloro-4-cyanophenyl)-N^4-(3-((2,2-difluorocyclopropyl)methyl)-7-fluoro-1-isopropyl-2,4-dioxo-1,2,3,4-tetrahydroquinazolin-6-yl)morpholine-2,4-dicarboxamide], the inhibition at 1 µM at RORγt [1] turned out to be 102%; on RORγt [3] it was 109%. For the same compound, on RORγt [2], the inhibition at 3 µM amounted to 103%.
Take `CC(C)n1c(=O)n(CC2CCCO2)c(=O)c2cc(NC(=O)N3CCO[C@@H](C(=O)Nc4ccc(C#N)c(Cl)c4)C3)c(F)cc21` (stereo partly drawn) [Example 333, (2R)—N^2-(3-chloro-4-cyanophenyl)-N^4-(7-fluoro-1-isopropyl-2,4-dioxo-3-(tetrahydrofuran-2-ylmethyl)-1,2,3,4-tetrahydroquinazolin-6-yl)morpholine-2,4-dicarboxamide]: the inhibition at 1 µM amounted to 101% on RORγt [1] and 107% on RORγt [3]. Besides, the inhibition at 3 µM at RORγt [2] was 106%.
The corresponding values for `CC(C)n1c(=O)n(CC2CCOC2)c(=O)c2cc(NC(=O)N3CCO[C@@H](C(=O)Nc4ccc(C#N)c(Cl)c4)C3)c(F)cc21` (stereo partly drawn) [Example 335, (2R)—N^2-(3-chloro-4-cyanophenyl)-N^4-(7-fluoro-1-isopropyl-2,4-dioxo-3-(tetrahydrofuran-3-ylmethyl)-1,2,3,4-tetrahydroquinazolin-6-yl)morpholine-2,4-dicarboxamide] are 101%, 108% and 106%.
